Source: patent US8618289B2 (Ambit Biosciences Corporation, priority 2008, dated 2013)
Counter-ions that a name gives are not always drawn.

How the values were obtained:
[1] = tested on: MEK1 phosphorylation in the A375 human melanoma cell line; test: cells; conditions: A-375, read-out: pMEK IC50
A375 cells = test: cells; conditions: Homo sapiens, A-375, read-out: A375 Viability EC50
RAF kinases = RAF kinases (Homo sapiens, UniProt P15056); test: biochemical
Sequence of RAF kinases (P15056 whole entry): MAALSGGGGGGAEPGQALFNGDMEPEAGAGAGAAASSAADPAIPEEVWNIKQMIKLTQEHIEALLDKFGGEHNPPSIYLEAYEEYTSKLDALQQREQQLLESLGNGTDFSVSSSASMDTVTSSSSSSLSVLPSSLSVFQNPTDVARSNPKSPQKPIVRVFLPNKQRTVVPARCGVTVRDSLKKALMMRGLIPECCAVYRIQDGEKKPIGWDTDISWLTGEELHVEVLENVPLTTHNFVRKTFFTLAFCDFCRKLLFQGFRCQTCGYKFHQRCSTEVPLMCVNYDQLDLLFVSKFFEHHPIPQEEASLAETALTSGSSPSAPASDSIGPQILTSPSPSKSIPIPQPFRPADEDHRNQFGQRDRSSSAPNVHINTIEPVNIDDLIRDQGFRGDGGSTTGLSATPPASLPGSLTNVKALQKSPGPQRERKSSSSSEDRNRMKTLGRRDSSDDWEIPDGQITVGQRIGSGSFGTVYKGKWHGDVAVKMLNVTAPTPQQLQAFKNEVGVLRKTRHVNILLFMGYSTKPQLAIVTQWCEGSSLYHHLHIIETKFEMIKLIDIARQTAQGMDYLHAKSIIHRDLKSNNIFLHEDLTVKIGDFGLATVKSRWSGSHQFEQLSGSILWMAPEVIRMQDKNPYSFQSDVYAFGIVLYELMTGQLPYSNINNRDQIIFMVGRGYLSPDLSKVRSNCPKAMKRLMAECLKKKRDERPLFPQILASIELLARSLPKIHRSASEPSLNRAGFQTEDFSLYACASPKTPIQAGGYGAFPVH
Experimental: Competition binding assays used herein were developed, validated and performed as described in Fabian et al., Nature Biotechnology 2005, 23, 329-336. […] The liganded beads were blocked with excess biotin and washed with blocking buffer (SeaBlock (Pierce), 1% BSA, 0.05% Tween 20, 1 mM DTT) to remove unbound ligand and to reduce non-specific binding. […] Test compounds were prepared as 100× stocks in DMSO and rapidly diluted into the aqueous environment. DMSO was added to control assays lacking a test compound. Primary screen interactions were performed in polypropylene 384-well plates in a final volume of 34 μt, while Kd determinations were performed in polystyrene 96-well plates in a final volume of 135 pt. […] The kinase concentration in the eluates was measured by quantitative PCR. Each kinase was tested individually against each compound. Kds were determined using eleven serial threefold dilutions. A selectivity score, which is a quantitative measure of selectivity of a compound against a panel of enzymes, may be calculated for a compound by dividing the number of enzymes for which a compound meets a set criteria, (for example, a binding constant of 100 nM or less), by the total number of enzymes tested. […] (Note, for those compounds tested in a larger kinase panel, as indicated by an asterisk (*) next to the S35 score, the divisor is 321 (i.e. the larger panel contains 321 distinct kinases, excluding mutant variants.)).

| IC50 [1] [nM] | EC50 (A375 cells) [nM] | Kd (RAF kinases) [nM] | Structure (SMILES) |
| --- | --- | --- | --- |
| 250 to 500 | > 1000 | 500 to 1000 | COc1cc2ncnc(Oc3cccc(NC(=O)Nc4cc(C(C)(C)C)on4)c3)c2cc1OCCN1CCCCC1 [Ex 16, 1-(5-tert-butylisoxazol-3-yl)-3-(3-(7-methoxy-6-(2-(piperidin-1-yl)ethoxy)quinazolin-4-yloxy)phenyl)urea] |
| < 250 | < 250 | 250 to 500 | COc1cc2ncnc(Oc3cccc(NC(=O)Nc4cc(C(C)(C)C)on4)c3)c2cc1OCCCN1CCS(=O)(=O)CC1 [Ex 26, 1-(5-tert-butyl-isoxazol-3-yl)-3-(3-{6-[3-(1,1-dioxo-thiomorpholin-4-yl)-propoxy]-7-methoxy-quinazolin-4-yloxy}-phenyl)-urea] |
| < 250 | < 250 | 250 to 500 | COc1cc2c(Oc3cccc(NC(=O)Nc4cc(C(C)(C)C)on4)c3)ncnc2cc1OCCCN1CCN(C)CC1 [Ex 28, 1-(5-tert-butylisoxazol-3-yl)-3-(3-(6-methoxy-7-(3-(4-methylpiperazin-1-yl)propoxy)quinazolin-4-yloxy)phenyl)urea] |
| > 1000 | > 1000 | 250 to 500 | COc1cc2ncnc(Sc3cccc(NC(=O)Nc4cc(C(C)(C)C)on4)c3)c2cc1OCCCN1CCN(CCO)CC1 [Ex 61, 1-(5-tert-butylisoxazol-3-yl)-3-(3-(6-(3-(4-(2-hydroxyethyl)piperazin-1-yl)propoxy)-7-methoxyquinazolin-4-ylthio)phenyl)urea] |
| < 250 | 500 to 1000 | 250 to 500 | COc1cc2ncnc(Sc3cccc(NC(=O)Nc4cc(C(C)(C)C)on4)c3)c2cc1OCCCN1CCOCC1 [Ex 63, 1-(5-tert-butylisoxazol-3-yl)-3-(3-(7-methoxy-6-(3-morpholinopropoxy)quinazolin-4-ylthio)phenyl)urea] |
| < 250 | < 250 | 250 to 500 | COc1cc2ncnc(Sc3cccc(NC(=O)Nc4cc(C(C)(C)C)on4)c3)c2cc1OCCN1CCOCC1 [Ex 70, 1-(5-tert-butylisoxazol-3-yl)-3-(3-(7-methoxy-6-(2-morpholinoethoxy)quinazolin-4-ylthio)phenyl)urea] |
| < 250 | 250 to 500 | 250 to 500 | COc1cc2c(Sc3cccc(NC(=O)Nc4cc(C(C)(C)C)on4)c3)ncnc2cc1OCCCN1CCC(CO)CC1 [Ex 74, 1-(5-tert-butylisoxazol-3-yl)-3-(3-(7-(3-(4-(hydroxymethyl)piperidin-1-yl)propoxy)-6-methoxyquinazolin-4-ylthio)phenyl)urea] |
| < 250 | 250 to 500 | 250 to 500 | COc1cc2ncnc(Oc3cccc(NC(=O)Nc4cc(C(C)(C)C)on4)c3)c2cc1O [Ex 107, 1-(5-tert-butylisoxazol-3-yl)-3-(3-(6-hydroxy-7-methoxyquinazolin-4-yloxy)phenyl)urea] |
| < 250 | < 250 | 250 to 500 | COc1cc2ncnc(Oc3cccc(NC(=O)Nc4cc(C(C)(C)C)on4)c3)c2cc1O[C@H]1CCN(CC(F)F)C1 [Ex 110, (S)-1-(5-tert-butylisoxazol-3-yl)-3-(3-(6-(1-(2,2-difluoroethyl)pyrrolidin-3-yloxy)-7-methoxyquinazolin-4-yloxy)phenyl)urea] |
| < 250 | 250 to 500 | 250 to 500 | COc1cc2ncnc(Oc3cccc(NC(=O)Nc4cc(C(C)(C)C)on4)c3)c2cc1OC[C@@H](O)CN1CCN(C)CC1 [Ex 111, (S)-1-(5-tert-butylisoxazol-3-yl)-3-(3-(6-(2-hydroxy-3-(4-methylpiperazin-1-yl)propoxy)-7-methoxyquinazolin-4-yloxy)phenyl)urea] |
| 250 to 500 | > 1000 | 250 to 500 | COc1cc2ncnc(Oc3cccc(NC(=O)Nc4cccc(C(C)(C)C)c4)c3)c2cc1OC [Ex 118, 1-(3-tert-butylphenyl)-3-(3-(6,7-dimethoxyquinazolin-4-yloxy)phenyl)urea] |
| 500 to 1000 | > 1000 | 250 to 500 | COc1cc2ncnc(Oc3cccc(NC(=O)Nc4cc(C(C)(C)CO)on4)c3)c2cc1OC [Ex 131, 1-(3-(6,7-dimethoxyquinazolin-4-yloxy)phenyl)-3-(5-(1-hydroxy-2-methylpropan-2-yl)isoxazol-3-yl)urea] |
| 250 to 500 | > 1000 | 250 to 500 | COc1cc2ncnc(Oc3cccc(NC(=O)Nc4ccc(OC)c(C(F)(F)F)c4)c3)c2cc1OC [Ex 138, 1-(3-(6,7-dimethoxyquinazolin-4-yloxy)phenyl)-3-(4-methoxy-3-(trifluoromethyl)phenyl)urea] |
| 250 to 500 | > 1000 | 250 to 500 | COc1cc2ncnc(Oc3cccc(NC(=O)Nc4cccc(C(C)C)c4)c3)c2cc1OC [Ex 144, 1-(3-(6,7-dimethoxyquinazolin-4-yloxy)phenyl)-3-(3-isopropylphenyl)urea] |
| < 250 | < 250 | 250 to 500 | COc1cc2ncnc(Oc3cccc(NC(=O)Nc4cc(C(C)(CF)CF)on4)c3)c2cc1OC [Ex 162, 1-[5-(1,3-difluoro-2-methylpropan-2-yl)isoxazol-3-yl]-3-[3-(6,7-dimethoxyquinazolin-4-yloxy)phenyl]urea] |
| > 1000 | > 1000 | – | COc1cc2ncnc(Oc3cccc(NC(=O)Nc4ccc(Cl)cc4)c3)c2cc1OC [Ex 175, 1-(4-chlorophenyl)-3-(3-(6,7-dimethoxyquinazolin-4-yloxy)phenyl)urea] |
| > 1000 | > 1000 | – | COc1ccc(NC(=O)Nc2cccc(Oc3ncnc4cc(OC)c(OC)cc34)c2)cc1Cl [Ex 180, 1-(3-chloro-4-methoxyphenyl)-3-(3-(6,7-dimethoxyquinazolin-4-yloxy)phenyl)urea] |
| > 1000 | > 1000 | – | COc1cc2ncnc(Oc3cccc(NC(=O)Nc4cccc(C(F)(F)F)c4)c3)c2cc1OC [Ex 181, 1-(3-(6,7-dimethoxyquinazolin-4-yloxy)phenyl)-3-(3-(trifluoromethyl)phenyl)urea] |
| 500 to 1000 | > 1000 | 250 to 500 | COc1cc2ncnc(Oc3cccc(NC(=O)Nc4ccc(C(F)(F)F)cc4)c3)c2cc1OC [Ex 183, 1-(3-(6,7-dimethoxyquinazolin-4-yloxy)phenyl)-3-(4-(trifluoromethyl)phenyl)urea] |
| 500 to 1000 | > 1000 | 250 to 500 | COc1cc2ncnc(Sc3cccc(NC(=O)Nc4cccc(C(F)(F)F)c4)c3)c2cc1OC [Ex 185, 1-(3-(6,7-dimethoxyquinazolin-4-ylthio)phenyl)-3-(3-(trifluoromethyl)phenyl)urea] |
| < 250 | < 250 | 250 to 500 | COc1cc2ncnc(Sc3cccc(NC(=O)Nc4cc(C(C)(CF)CF)on4)c3)c2cc1OC [Ex 191, 1-[5-(1,3-difluoro-2-methylpropan-2-yl)isoxazol-3-yl]-3-[3-(6,7-dimethoxyquinazolin-4-ylthio)phenyl]urea] |
| < 250 | 500 to 1000 | – | COc1cc2ncnc(Sc3cccc(NC(=O)Nc4cc(C(F)(F)F)nn4C)c3)c2cc1OC [Ex 193, 1-[3-(6,7-dimethoxyquinazolin-4-ylthio)phenyl]-3-[1-methyl-3-(trifluoromethyl)-1H-pyrazol-5-yl]urea] |
| < 250 | > 1000 | – | COc1cc2ncnc(Sc3cccc(NC(=O)Nc4cc(C(C)(CF)CF)nn4-c4ccccc4)c3)c2cc1OC [Ex 196, 1-[3-(1,3-difluoro-2-methylpropan-2-yl)-1-phenyl-1H-pyrazol-5-yl]-3-[3-(6,7-dimethoxyquinazolin-4-ylthio)phenyl]urea] |
| 250 to 500 | > 1000 | 250 to 500 | COc1cc2ncnc(Sc3cccc(NC(=O)Nc4cc(C5CCCC5)on4)c3)c2cc1OC [Ex 201, 1-(5-cyclopentylisoxazol-3-yl)-3-(3-(6,7-dimethoxyquinazolin-4-ylthio)phenyl)urea] |

| Structure (SMILES) | IC50 [1] [nM] | EC50 (A375 cells) [nM] | Kd (RAF kinases) [nM] |
| --- | --- | --- | --- |
| COc1cc2ncnc(Sc3cccc(NC(=O)Nc4cc(C(C)(C)C)on4)c3)c2cc1OCCCN1CCS(=O)(=O)CC1 [Ex 62, 1-(5-tert-butyl-isoxazol-3-yl)-3-(3-{6-[3-(1,1-dioxo-thiomorpholin-4-yl)-propoxy]-7-methoxy-quinazolin-4-ylsulfanyl}-phenyl)-urea] | < 250 | < 250 | 250 to 500 |
| COc1cc2c(Oc3cccc(NC(=O)Nc4cc(C(C)(C)C)on4)c3)ncnc2cc1O[C@H]1CCNC1 [Ex 96, (S)-1-(5-tert-butylisoxazol-3-yl)-3-(3-(6-methoxy-7-(pyrrolidin-3-yloxy)quinazolin-4-yloxy)phenyl)urea dihydrochloride] | 250 to 500 | > 1000 | 250 to 500 |
| COc1cc2c(Oc3cccc(NC(=O)Nc4cc(C(C)(C)C)on4)c3)ncnc2cc1O[C@@H]1CCNC1 [Ex 98, (R)-1-(5-tert-butylisoxazol-3-yl)-3-(3-(6-methoxy-7-(pyrrolidin-3-yloxy)quinazolin-4-yloxy)phenyl)urea dihydrochloride] | 500 to 1000 | > 1000 | 250 to 500 |
| COc1cc2ncnc(Sc3cccc(NC(=O)Nc4cccc(C(C)(C)C)c4)c3)c2cc1OC [Ex 120, 1-(3-tert-butylphenyl)-3-(3-(6,7-dimethoxyquinazolin-4-ylthio)phenyl)urea] | 250 to 500 | > 1000 | 250 to 500 |
| COc1cc2ncnc(Oc3cccc(NC(=O)Nc4ccc(OC(F)(F)F)cc4)c3)c2cc1OC [Ex 177, 1-(3-(6,7-dimethoxyquinazolin-4-yloxy)phenyl)-3-(4-(trifluoromethoxy)phenyl)urea] | > 1000 | > 1000 | 250 to 500 |
| COc1cc2ncnc(Sc3cccc(NC(=O)Nc4cc(C(C)(C)F)no4)c3)c2cc1OC [Ex 187, 1-(3-(6,7-dimethoxyquinazolin-4-ylthio)phenyl)-3-(3-(2-fluoropropan-2-yl)isoxazol-5-yl)urea] | < 250 | > 1000 | 250 to 500 |
